Data reported in patent US9534008B2, “Small molecule compounds that control plant- and insect-pathogenic nematodes” (California Institute of Technology, priority 2011, dated 2017).

Assays:
[1] = test system: C. elegans dauer larvae; assay: Dispersal assay, C. elegans dauer; format: in vivo; settings: for substitution for ascr#2 in the C. elegans dispersal blend: in vivo; for dispersing nematodes, normalized to percent of the positive control response: physiological concentration, with 0.25% E. coli (HB101), positive control dauer conditioned medium
Protocol: C. elegans dauer juveniles were washed with MILLI-Q water 3 times, placed into 6 cm petri dishes with a small amount of water, and rested overnight. Approximately 200-300 nematodes in 10 μl of water were placed on an agar plate, to which 2 μl of treatment was added. The liquid culture that produced 60% dauer animals was centrifuged, filtered with a 0.45 μm filter, and used as a positive control for dispersal. Thereafter, media were lyophilized and resuspended in MILLI-Q water 5 times. 2 μl to 10 μl of nematode suspension was used for the assay. As a negative control, 0.5% E. coli (HB101) was prepared in S-complete, lyophilized, and adjusted to the final volume of 0.25% E. coli in the assay.
Nematodes were quantified using Image J software (Image Processing and Analysis in Java, National Institutes of Health). The number of nematodes visualized and counted using Image J is illustrated in FIG. 63B. Nematodes inside the circle were subtracted manually from the total number of worms counted because of the location of their placement. Each treatment was replicated 9-11 times. The graph was normalized to the positive control, the dauer conditioned medium.

[2] = test system: S. feltiae IJs; assay: Dispersal assay, S. feltiae IJs; format: in vivo; settings: physiologically relevant concentrations
Protocol: S. feltiae IJs were washed with MILLI-Q water three times and incubated in 6 cm petri dishes for […] with a small amount (4-5 ml) of MILLI-Q water. Nematodes were placed the following day on a 10.7 g/L agar with 1010 g/cm^2 gel strength (PhytoTechnology Lab. Shawnee Mission, Kans.). Nematode behavior was assayed on multiple plates with internal plate replicates to rule out the possibility that behavior was affected by plate composition. Approximately 300 IJs in 10 μl water were placed on an agar medium and the test compounds or extracts (1-2 μl) were placed into the nematode suspension. Upon absorption (˜15 minutes) of the liquid, the freely moving nematodes were video recorded for 5-10 minutes. Dispersal behavior is temperature and season dependent. During winter, the assay is effective at room temperature (22±1° C.). During summer, the assay requires a temperature controlled environment due to the effects on nematode behavior above 23° C.
For entomopathogenic nematodes (EPN), insect cadavers are known to promote dispersal behavior of the IJ stage (Shapiro-Ilan et al., J. Invertebr. Pathol. 83:270-72 (2003), which is hereby incorporated by reference in its entirety). An assay was therefore developed to identify compounds in consumed insect cadavers that promote dispersal. Approximately 300 IJs of S. feltiae in 10 μl of water were placed on an agar plate (FIG. 64B). […]

[3] = test system: several of the tested nematode species; assay: Retention assay, across species; format: in vivo; settings: 1 nM, 1 μM and 1 mM tested
Protocol: OP50 E. coli was grown on a standard 5 cm agar plate (made with standard Nematode Growth Medium). The bacterial lawn was 16 mm in diameter and was grown overnight at 20° C. before being used in trials. Two 4 mm spots (0.6 μL) were placed on opposite sides of the bacterial lawn (using a transparent template to guide spot placement), and several minutes elapsed for the liquid to settle in before placing nematodes down on the assay. Recording began immediately upon worm placement. 0.6 μL of the control was placed on one side of the lawn, and 0.6 μL of the experimental cue was placed on the other side of the lawn, changing the location of the cue throughout trials between left/right and top/bottom to avoid bias.
Nematodes were isolated by gender at the L4 stage the day before being used in trials as developed adults. Worms were evenly divided and placed at two points equidistant from the foci of the scoring region. Trials were recorded for 20 minutes, and frames were collected for analysis at 1 frame per second. Results were averaged from at least three different trials. For every nematode species in this study, a different total number of worms (using water in both scoring regions) was tested to determine the minimum number of worms necessary for consistent unbiased results over a 20 minute trial. The total number of worms used in the multiple species assays depended on that species' optimal parameters. 10 worms were used for P. redivivus males and females, 20 worms were used for C. elegans males and O. dolichuridae males, and 14 worms were used for S. glaseri males. The Automated Software was used to compare worm occupancy in each scoring region over time, and the Chemotaxis Index (Bargmann et al., Cell 74:515-27 (1993), which is hereby incorporated by reference in its entirety) was adapted to score preference or avoidance to each ascaroside.
A video camera attached to the microscope produced a digital video stream, which was then analyzed. The ratio of the time the average worm spent in each region of interest was calculated for every trial. For ease of implementation, all worms in a single experiment were assumed to be roughly the same size. Thus worm pixels were counted instead of whole worms, allowing fractions of a worm in the region of interest to be taken into account. It also eliminated the need for a shape-based worm identification algorithm, and allowed each frame to be analyzed independently. A band-pass filter was applied to each frame to eliminate the effect of uneven lighting and also accentuate the worms against the background. The worm was then identified after thresholding the filtered image. Throughout each experiment, the locations and sizes of the regions of interest were known. Through the filtering described above, it is known which pixels are occupied by worms and which ones are not. Thus, the ratio of worm-pixels to all pixels inside the region of interest can be calculated to produce the worm-occupancy ratio. This calculation was done for every frame, giving a plot output of worm-occupancy ratio vs. time for each region.

[4] = test system: C. elegans; assay: Ascaroside function (Table 12), C. elegans; format: in vivo, Caenorhabditis elegans; parameters: key to Attract Females/Herm. / Promote Dauer Formation / Attract Males: A very strong result of affecting nematode behavior is designated in the table as “strong.”
Protocol: (§1) Various ascarosides and ascaroside blends were administered to various nematodes described below (Table 12). […] A very strong result of affecting nematode behavior is designated in the table as “strong.”

[5] = test system: Panagrellus redivivus; assay: Ascaroside function (Table 12), Panagrellus redivivus; format: in vivo
Protocol: as §1

[6] = test system: Meloidogyne javanica, M. floridensis, M. incognita, M. hapla; assay: Ascaroside function (Table 12), root-knot nematodes; format: in vivo, Meloidogyne spp.; settings: Meloidogyne javanica, M. floridensis, M. incognita, M. hapla
Protocol: as §1

[7] = test system: Steinernema riobrave, S. diaprepesi, S carpocapse; assay: Ascaroside function (Table 12), Steinernema riobrave group; format: in vivo, Steinernema spp.
Protocol: as §1

[8] = test system: S. feltiae; assay: Ascaroside function (Table 12), S. feltiae; format: in vivo, Steinernema feltiae
Protocol: as §1

[9] = test system: Heterorhabditis bacteriophora, H. zealandica, H. floridensis; assay: Ascaroside function (Table 12), Heterorhabditis; format: in vivo, Heterorhabditis spp.; settings: Heterorhabditis bacteriophora, H. zealandica, H. floridensis
Protocol: as §1

[10] = test system: C. elegans males; assay: Attraction assay (long-range, point source); settings: in vivo
Protocol: 10 cm standard chemotaxis plates were prepared (Bargmann et al., Cell 74:515-27 (1993), which is hereby incorporated by reference in its entirety) and stored at 4° C. until the day before use. Standard 1 cm-diameter copper pipes were sectioned into 1 cm-tall segments to use for the holding chambers. The females/hermaphrodites were isolated overnight, washed 3 times in M9 buffer, and then allowed to wander on a plate pre-conditioned with 50 uL of 1000× streptomycin for 2 hours to kill any bacteria that might produce a false positive attractant. The nematodes were then washed 3 times, and the supernatant from the last wash was placed in a copper chamber, as the control, 1 cm from the border of the 10 cm plate. The nematodes were suspended in M9 within the copper chamber, 1 cm from the border opposite the control chamber. After 6 hours, they were subsequently removed and replaced with 3 μL of 1M sodium azide. 100 C. elegans adult males were isolated overnight, washed several times in ddH2O, and placed at the center of the agar plate. After several hours, males paralyzed within 2 cm of each region were scored. The Chemotaxis Index (Bargmann et al., Cell 74:515-27 (1993), which is hereby incorporated by reference in its entirety) was then used to score male chemotaxis to either point source.

[11] = test system: S. glaseri; assay: Ascaroside function (Table 12), S. glaseri; format: in vivo
Protocol: as §1

[12] = test system: C. elegans; settings: in vivo; cited from earlier work
[13] = test system: C. elegans; settings: from 1 μM concentration; cited from earlier work

SMILES	substitution for ascr#2 in the C. elegans dispersal blend [1]	substitution for ascr#2 in the C. elegans dispersal blend ([1]; listed as Ascr#9)	dispersal activity when tested alone [2]	preference for areas conditioned by ascaroside [3]	Attract Males [4]	Attract Males [5]	Dispersal (of dauer larvae, infectious juveniles) [6]	Repel Females/Herm. [6]	Dispersal (of dauer larvae, infectious juveniles) [7]	Dispersal (of dauer larvae, infectious juveniles) [8]	Dispersal (of dauer larvae, infectious juveniles) [9]	dispersing nematodes, normalized to percent of the positive control response [1] [%]	C. elegans male chemotaxis to a point source [10]	Dispersal (of dauer larvae, infectious juveniles) [4]	Promote Dauer Formation [4]	Attract Females/Herm. [5]	Attract Males [11]	dauer-inducing activity [12]	amount eliciting C. elegans male attraction from a distance (as low as) [10] [attomol]	most active amount for attraction in C. elegans [13] [pmol]
C[C@H](CCC(=O)O)O[C@@H]1O[C@@H](C)[C@H](O)C[C@H]1O [ascr#9]	can replace	able to substitute	did not have activity	preferred	ascr#9	ascr#9	ascr#9	ascr#9	ascr#9	ascr#9	ascr#9	–	–	–	–	–	–	–	–	–
C[C@H](CC/C=C/C(=O)Nc1ccc(C(=O)O)cc1)O[C@@H]1O[C@@H](C)[C@H](O)C[C@H]1O [ascr#8]	–	–	–	preferred	ascr#8	ascr#8	–	–	–	ascr#8	–	50	not active	ascr#8	([strong])	ascr#8	ascr#8	promote dauer entry	–	–
C[C@H](CC(=O)O)O[C@@H]1O[C@@H](C)[C@H](O)C[C@H]1O [ascr#11]	–	–	did not have activity	–	–	–	–	–	ascr#11	–	–	–	–	–	–	–	–	–	–	–
CC(=O)CCC[C@@H](C)O[C@@H]1O[C@@H](C)[C@H](O)C[C@H]1O [ascr#2]	–	–	–	–	ascr#2	–	–	–	–	ascr#2	–	40	chemotax towards	ascr#2	([strong])	–	–	promote dauer entry	≤ 500	~1
